Converted amounts (≈) assume the structure as drawn.

The term logP denotes the decadic logarithm of the partition coefficient of the neutral form, usually between octanol and water. A high value points to higher lipophilicity. What is called solubility is the concentration that dissolves in the medium under given conditions. A high value points to much dissolved substance.

Details in the first data set: not given
Consider `CC1=CC(=O)CC(C)(C)C1`, for which the logP came out at 1.7.
As to `Cc1ccc2cc3ccccc3cc2c1`, the logP came to 5.
In turn, `O=[N+]([O-])c1ccc(O)cc1C(F)(F)F` yielded a solubility of 24.1 mM (≈ 5000 µg/mL). This counts as millimolar.
Consider `O=[N+]([O-])c1nc[nH]c1I`, for which the logP is 0.28.
Same read-out and setting: under `O=C(O)C(=O)Nc1nc(-c2ccc3c(c2)OCCO3)cs1` stands 1.8; under `CCCCCNC(=O)CCC(NS(=O)(=O)c1ccccc1)C(=O)O` (stereo not drawn), 0.03; under `CCN(C)N=O`, 0.04.
In the case of `Clc1cc(Cl)c2cc(Cl)cc(Cl)c2c1`, the logP was found to be 6.19.
On the same count and under the same terms, under `Cn1ccc(=O)c(O)c1` stands -0.7.
Same read-out and setting: under `CC(C)(C)NSc1nc2ccccc2s1` stands 4.67.
Compound `COC(=O)CCCCC(=O)OC` had a solubility of 34.4 mM (≈ 6000 µg/mL).
For the compound `CC(=O)OC1C=CC2C3Cc4ccc(O)c5c4C2(CCN3C)C1O5` (stereo not drawn), the logP amounted to 1.55.
`CCn1cc(C(=O)O)c(=O)c2cc(F)c(N3CCNC(C)C3)cc21` (stereo not drawn) gave a logP of 0.34.
For `O=C(Nc1ccc(Cl)cc1)c1cc([N+](=O)[O-])ccc1O`, the logP is 2.54.
On the same count and under the same terms, under `OC(CNC1COCCC1Br)Cn1ccnc1` (stereo not drawn) stands -0.17.

Staying with this data set, now noted: 20 °C.
`CN(C)C(=N)N` displayed a solubility of 18.6 mM (≈ 1620 µg/mL).
On the same count and under the same terms, under `CCCC(C)C(=O)O` (stereo not drawn) stands 129 mM (≈ 15000 µg/mL); under `COc1cc(C(Cl)(Cl)Cl)cc(Cl)n1`, 0.0433 mM (≈ 11.3 µg/mL); under `Nc1c(Cl)cc([N+](=O)[O-])cc1Cl`, 0.0338 mM (≈ 7 µg/mL).
As to `C=CC(=O)NCO`, the solubility was 6460 mM (≈ 653000 µg/mL).
Same read-out and setting: under `CCC(Cl)Cl` stands 23.9 mM (≈ 2700 µg/mL).
The compound `CC1CCC(O)CC1` (stereo not drawn) displayed a solubility of 131 mM (≈ 15000 µg/mL).
Turning to `CCSCC`, the solubility was determined as 34.7 mM (≈ 3130 µg/mL).
As to `CN(C)c1ccncc1`, the solubility was determined as 622 mM (≈ 76000 µg/mL). This solubility is about 18-fold higher than that of the compound before.
Still for that read-out and setting: under `CCN(C)N=O` stands 3400 mM (≈ 300000 µg/mL).

The data set is the same for the next values; noted with them: 23.0 °C.
Consider `CC/C=C\CCO`, for which the log10 OH rate constant (cm³/molecule/s) is -9.96.
In turn, `O=C1CC=CO1` gave a log10 OH rate constant (cm³/molecule/s) of -10.4.
With `CCC(C)OCOC(C)CC` (stereo not drawn), the log10 OH rate constant (cm³/molecule/s) is -10.4.
In turn, `CC(=O)C(C)O` (stereo not drawn) gave a log10 OH rate constant (cm³/molecule/s) of -11.
Compound `c1ccc2c(c1)OCCO2` registered a log10 OH rate constant (cm³/molecule/s) of -10.6.

Still in this data set, the particulars now being: 24 °C.
In turn, `COc1cc(C=O)cc(Cl)c1O` returned a solubility of 1.33 mM (≈ 249 µg/mL).
In the case of `c1ccc2cc3ccccc3cc2c1`, the solubility came out at 0.000244 mM (≈ 0.0434 µg/mL).

The same data set, now with this note: 24.0 °C.
As for `c1ccc(Oc2ccccc2)cc1`, the log10 OH rate constant (cm³/molecule/s) is -11.

Still in this data set, the particulars now being: 25 °C.
Consider `CCCCCCCCCl`, for which the solubility was 0.0329 mM (≈ 4.89 µg/mL).
Consider `O=C(O)C(Br)(Br)Br`, for which the solubility is 674 mM (≈ 200000 µg/mL). Against the preceding compound, the solubility is about 20000-fold higher.
Compound `ClC1=C(Cl)C2(Cl)C3C(Cl)C=CC3C1(Cl)C2(Cl)Cl` (stereo not drawn) came in with a solubility of 0.000482 mM (≈ 0.18 µg/mL).
`CS` displayed a solubility of 320 mM (≈ 15400 µg/mL).
Turning to `Brc1cc(Br)c(Br)cc1Br`, the solubility came to 0.000102 mM (≈ 0.04 µg/mL).
On the same count and under the same terms, under `O=[N+]([O-])c1ccc(F)cc1O` stands 8.91 mM (≈ 1400 µg/mL); under `O=C([O-])CF.[Na+]`, 11100 mM; under `Clc1ccccc1-c1ccccc1`, 0.0256 mM (≈ 4.83 µg/mL).
For the compound `CC(N)=S`, the solubility was determined as 2170 mM (≈ 163000 µg/mL).
Regarding `BrC1CCCCC1`, the solubility was 5.08 mM (≈ 828 µg/mL).
On to `CCCCCN(CCCCC)CCCCC`, for which the solubility was found to be 0.0928 mM (≈ 21.1 µg/mL).
In turn, `c1ccc(Oc2ccccc2)cc1` came in with a solubility of 0.106 mM (≈ 18 µg/mL).
On to `CCOC(=O)COc1ccc(Cl)cc1`, for which the solubility was determined as 3.8 mM (≈ 815 µg/mL).
Same read-out and setting: under `C=C(C)C(=O)OCC` stands 47.3 mM (≈ 5400 µg/mL).
As for `Nc1nc[nH]n1`, the solubility is 3330 mM (≈ 280000 µg/mL).
Turning to `Clc1ccc(C(c2ccccc2Cl)C(Cl)Cl)cc1` (stereo not drawn), the solubility stood at 0.000312 mM (≈ 0.1 µg/mL).
The compound `CC(=O)c1ccc(-c2ccccc2)cc1` came in with a solubility of 0.489 mM (≈ 96 µg/mL). This solubility lies about 1600-fold higher than the previous one.
`ClCC(Cl)CCl` displayed a solubility of 11.9 mM (≈ 1750 µg/mL). This solubility lies about 24-fold higher than the previous one.
Turning to `CC1(C)C2CC3OC3(C)C1C2` (stereo not drawn), the solubility worked out at 2.55 mM (≈ 388 µg/mL). Against the preceding compound, the solubility is about 4.7-fold lower.
Regarding `C=C(C)C(=O)OC(C)(C)C`, the solubility was 7.03 mM (≈ 1000 µg/mL). Compared with the last compound, the solubility is about 2.8-fold higher.

The data set is the same for the next values; noted with them: 25.0 °C.
In turn, `O=CC(Cl)(Cl)Cl` had a log10 OH rate constant (cm³/molecule/s) of -11.8.
`O=C(O)C(F)(F)F` came in with a log10 OH rate constant (cm³/molecule/s) of -12.9.
`CCCC(C)=O` gave a log10 OH rate constant (cm³/molecule/s) of -11.3.
The compound `CCNC(=O)OCC` returned a log10 OH rate constant (cm³/molecule/s) of -10.8.
With `CCCCOCOCCCC`, the log10 OH rate constant (cm³/molecule/s) is -10.5.
`FC(F)OC(C(F)(F)F)C(F)(F)F` displayed a log10 OH rate constant (cm³/molecule/s) of -13.1.
`c1ccc(Nc2ccccc2)cc1` showed a log10 OH rate constant (cm³/molecule/s) of -9.71.
Same read-out and setting: under `c1ccc2[nH]ccc2c1` stands -9.81; under `COCC(C)OC` (stereo not drawn), -10.5.
For `CCCCCCBr`, the log10 OH rate constant (cm³/molecule/s) is -11.2.
The same measure, in the same setting: under `COC(=O)CCCCC(=O)OC` stands -11.1; under `CC(=O)C(C)C`, -11.5.
Consider `FC(F)=C(F)C(F)(F)F`, for which the log10 OH rate constant (cm³/molecule/s) was -11.7.
`c1ccc2cc3ccccc3cc2c1` gave a log10 OH rate constant (cm³/molecule/s) of -9.96.

Still in this data set, the particulars now being: 27.0 °C.
As for `Oc1ccccc1O`, the log10 OH rate constant (cm³/molecule/s) was -9.98.

The values above are taken from the OPERA property sets (Mansouri et al. 2018).
